# Reference: ChEMBL document CHEMBL4052640 (Eur J Med Chem, 2017)
# Legend:
# [1] = test system: Vesicular stomatitis virus; assay: microbe, parasite or virus in culture; details: HeLa
# Yellow fever virus = assay: microbe, parasite or virus in culture; details: Vero
# Coxsackievirus B4 [2] = type: functional; details: Enterovirus B, Vero
# Sindbis virus = type: functional; details: Vero
# Human respirovirus 3 = assay: microbe, parasite or virus in culture; details: Human respirovirus 3, Vero
# [3] = test system: Mammalian orthoreovirus 1; type: functional; details: Mammalian orthoreovirus 1, Vero
# cells [4] = details: Influenza A virus, MDCK
# Coxsackievirus B4 [5] = type: functional, cell-based; details: Enterovirus B, HeLa
# Influenza A virus [6] = type: functional, cell-based; details: A/Ned/378/05(H1N1), MDCK
# Punta Toro virus = type: functional; details: Vero
# cells [7] = details: MDCK
# Influenza A virus [8] = type: functional, cell-based; details: A/Ned/378/05(H1N1), MDCK; remark: listed apart in the source
# [9] = test system: Respiratory syncytial virus; type: functional, cell-based; details: human respiratory syncytial virus, HeLa
# cells [10] = details: Influenza A virus, MDCK; remark: listed apart in the source
# Influenza B virus = assay: microbe, parasite or virus in culture; details: B/Ned/537/05, MDCK
# MDCK = assay: Cytotoxicity against dog MDCK cells assessed as reduction in cell viability measured after 5 to 6 days by MTS assay; type: cell-based, Canis lupus familiaris
SMILES,EC50 [1] [µM],EC50 (Yellow fever virus) [µM],EC50 (Coxsackievirus B4 [2]) [µM],EC50 (Sindbis virus) [µM],EC50 (Human respirovirus 3) [µM],EC50 [3] [µM],EC50 (cells [4]) [µM],EC50 (Coxsackievirus B4 [5]) [µM],EC50 (Influenza A virus [6]) [µM],EC50 (Punta Toro virus) [µM],EC50 (cells [7]) [µM],EC50 (Influenza A virus [8]) [µM],EC50 [9] [µM],EC50 (cells [10]) [µM],EC50 (Influenza B virus) [µM],CC50 (MDCK) [µM]
CCC1(C)N=C(N)N=C(N)N1c1ccc(Cl)cc1 (configuration not stated),> 100,> 100,> 100,> 100,> 100,> 100,> 83,> 100,> 100,> 100,2.2,> 100,5.4,> 83,8.3,> 100
NC1=NC2(CCCCC2)N(c2ccc(Cl)cc2)C(N)=N1,> 100,> 100,> 100,> 100,> 100,> 100,49,> 100,> 100,> 100,36,> 100,> 100,10,> 83,> 100
CC1(C)N=C(N)N=C(N)N1c1ccccc1Cl,> 100,> 100,> 100,> 100,> 100,> 100,> 83,> 100,> 100,> 100,19,> 100,48,34,56,> 100
CC1(C)N=C(N)N=C(Nc2ccc(Cl)cc2)N1,> 100,> 100,> 100,> 100,> 100,> 100,> 83,> 100,> 100,> 100,> 100,> 100,> 100,> 83,> 100,> 100
COc1ccc(N2C(N)=NC(N)=NC2(C)C)cc1,> 100,> 100,> 100,> 100,> 100,> 100,–,> 100,–,> 100,–,–,–,–,–,> 100
CC1(C)N=C(N)N=C(N)N1c1cccc(Cl)c1,> 100,> 100,> 100,> 100,> 100,–,–,> 100,–,> 100,–,–,–,–,–,1.4
CCCC1N=C(N)N=C(N)N1c1ccc(Cl)cc1 (configuration not stated),> 100,> 100,> 100,> 100,> 100,> 100,> 83,> 100,> 100,> 100,> 100,> 100,> 100,> 83,29,> 100
CC1(C)N=C(N)N=C(N)N1c1cc(C(F)(F)F)cc(C(F)(F)F)c1,> 100,> 100,> 100,> 100,> 100,> 100,36,> 100,–,> 100,0.8,–,0.27,> 100,1.8,> 100
CC1(C)N=C(N)N=C(N)N1c1cccc(Br)c1,> 100,> 100,> 100,> 100,> 100,–,> 100,> 100,–,> 100,–,–,–,> 100,–,29
CC1(C)N=C(N)N=C(N)N1c1ccccc1,> 100,> 100,> 100,> 100,> 100,> 100,–,> 100,–,> 100,–,–,–,–,–,> 100
NC1=NC2(CCCC2)N(c2ccc(Cl)cc2)C(N)=N1,> 100,> 100,> 100,> 100,> 100,> 100,> 83,> 100,> 100,> 100,6.1,> 100,8,> 83,18,> 100
CC1(C)N=C(N)N=C(N)N1c1ccc(C(=O)O)cc1,> 100,> 100,> 100,> 100,> 100,> 100,> 83,> 100,> 100,> 100,> 100,> 100,> 100,> 83,> 100,> 100
NC1=NC2(CCCCC2)N(c2cccc(C(F)(F)F)c2)C(N)=N1,> 100,> 100,> 100,> 100,> 100,> 100,> 100,> 100,–,> 100,–,–,–,> 100,–,> 100
CC1N=C(N)N=C(N)N1c1ccc(Cl)cc1 (configuration not stated),> 100,> 100,> 100,> 100,> 100,> 100,> 83,> 100,> 100,> 100,4.9,> 100,6.8,> 83,17,> 100
NC(=O)c1ncn([C@@H]2O[C@H](CO)[C@@H](O)[C@H]2O)n1 [RIBAVIRIN],–,> 250,> 250,> 250,–,> 250,–,–,10,29,–,7.6,5.8,–,–,–
CC(=O)N[C@H]1[C@H]([C@H](O)[C@H](O)CO)OC(C(=O)O)=C[C@@H]1N=C(N)N [ZANAMIVIR],–,–,–,–,–,–,6.8,–,–,–,0.055,–,–,2.3,0.06,> 100
CC1(C)N=C(N)N=C(N)N1c1ccc(Br)cc1,> 100,> 100,> 100,> 100,> 100,> 100,19,> 100,21,> 100,1,7.3,0.16,39,2.9,53
NC1=NC2(CCCCC2)N(c2cccc(Cl)c2)C(N)=N1,> 100,> 100,> 100,> 100,> 100,> 100,> 100,> 100,–,> 100,3,–,–,> 100,10,> 100
CC1(C)N=C(N)N=C(N)N1c1ccc(Cl)cc1 [CYCLOGUANIL],> 100,> 100,> 100,> 100,> 100,> 100,–,> 100,–,> 100,–,–,–,–,–,52
NC1=NC2(CCCC2)N(c2cccc(C(F)(F)F)c2)C(N)=N1,> 100,> 100,> 100,> 100,> 100,> 100,> 100,> 100,–,> 100,0.33,–,0.2,> 100,1.6,> 100
CC1(C)N=C(N)N=C(N)N1c1cccc(F)c1,> 100,> 100,> 100,> 100,> 100,9.5,21,> 100,–,> 100,0.2,–,0.01,> 100,1.7,> 100
COc1c(C)c2c(c(O)c1C/C=C(\C)CCC(=O)O)C(=O)OC2 [MYCOPHENOLIC ACID],–,2.3,> 100,1.4,0.4,–,–,–,–,–,–,–,–,–,–,–
CCc1nc(N)nc(N)c1-c1ccc(Cl)cc1 [PYRIMETHAMINE],> 100,> 100,–,–,–,–,> 83,> 100,–,> 100,–,–,–,> 83,–,41
NC12CC3CC(CC(C3)C1)C2 [AMANTADINE],–,–,–,–,–,–,211,–,2.3,–,> 400,2.2,–,124,> 400,> 400
Cc1ccc(N2C(N)=NC(N)=NC2(C)C)cc1,> 100,> 100,> 100,> 100,> 100,> 100,34,> 100,48,> 100,1.2,34,–,53,11,> 100
CC(N)C12CC3CC(CC(C3)C1)C2 (configuration not stated) [RIMANTADINE],–,–,–,–,–,–,–,–,–,–,> 400,–,–,–,> 400,> 400
NC1=NC2(CCCC2)N(c2cccc(Cl)c2)C(N)=N1,> 100,> 100,> 100,> 100,> 100,> 100,49,> 100,–,> 100,0.4,–,0.22,> 100,4.5,> 100
CC1(C)N=C(N)N=C(N)N1c1ccc(F)cc1,> 100,> 100,> 100,> 100,> 100,> 100,–,> 100,–,> 100,–,–,–,–,–,> 100
